Results from US8338465B2, “Cyclic carboxylic acid rhodanine derivatives for the treatment and prevention of tuberculosis” (priority 2006, dated 2012).

biological target: T1, dihydrolipoamide acyltransferase (DlaT) (Mycobacterium tuberculosis, UniProt P9WIS7); assay: DlaT inhibition (Dlat IC50); DTNB peroxidase assay with Lpd, DlaT and AhpD; format: biochemical; details: Dlat IC50 category
T1 sequence (P9WIS7 1-553): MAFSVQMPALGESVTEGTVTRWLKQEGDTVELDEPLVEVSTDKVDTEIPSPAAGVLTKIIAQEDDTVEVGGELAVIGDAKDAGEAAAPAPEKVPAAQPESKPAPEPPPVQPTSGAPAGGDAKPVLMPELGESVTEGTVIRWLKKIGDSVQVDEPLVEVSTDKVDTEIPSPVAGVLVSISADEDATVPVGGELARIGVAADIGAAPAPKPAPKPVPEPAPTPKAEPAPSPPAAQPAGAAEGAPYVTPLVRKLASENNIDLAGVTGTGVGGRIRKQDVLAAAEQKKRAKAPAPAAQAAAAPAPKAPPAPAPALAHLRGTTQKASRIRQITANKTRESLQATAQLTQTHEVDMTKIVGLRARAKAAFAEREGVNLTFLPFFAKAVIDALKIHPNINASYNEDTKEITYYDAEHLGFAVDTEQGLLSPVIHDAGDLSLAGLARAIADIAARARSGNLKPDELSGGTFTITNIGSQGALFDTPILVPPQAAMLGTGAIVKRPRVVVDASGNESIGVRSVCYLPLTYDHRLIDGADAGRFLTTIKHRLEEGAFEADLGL

`O=C(O)C(c1ccccc1)N1C(=O)C(=Cc2ccc(-c3ccc(Cl)cc3Cl)o2)SC1=S` (stereo not shown) [Compound B44] and `O=C(O)C(c1ccccc1)N1C(=O)C(=Cc2ccc(-c3cc(Cl)ccc3Cl)o2)SC1=S` (stereo not shown) [Compound B46] cannot be ordered by IC50: < 10 µM for the first, < 10 µM for the second.

`O=C(O)C(Cc1ccccc1)N1C(=O)C(=Cc2ccc(-c3ccc(Cl)cc3Cl)o2)SC1=S` (stereo not shown) [Compound B45] and `O=C(O)C(Cc1ccccc1)N1C(=O)C(=Cc2ccc(-c3cc(Cl)ccc3Cl)o2)SC1=S` (stereo not shown) [Compound B47] cannot be ordered by IC50: < 10 µM for the first, < 10 µM for the second.

`O=C(O)C(c1ccccc1)N1C(=O)C(=Cc2ccc(-c3c(Cl)cccc3Cl)o2)SC1=S` (stereo not shown) [Compound B48] and `O=C(O)C(Cc1ccccc1)N1C(=O)C(=Cc2ccc(-c3c(Cl)cccc3Cl)o2)SC1=S` (stereo not shown) [Compound B49] cannot be ordered by IC50: < 10 µM for the first, < 10 µM for the second.

`O=C(O)C(c1ccccc1)N1C(=O)C(=Cc2ccc(-c3cccc(C(F)(F)F)c3)o2)SC1=S` (stereo not shown) [Compound B50] and `CC(C(=O)O)N1C(=O)C(=Cc2ccc(-c3cccc(C(F)(F)F)c3)o2)SC1=S` (stereo not shown) [Compound B100] cannot be ordered by IC50: < 10 µM for the first, < 10 µM for the second.

`O=C(O)C(Cc1ccc(O)cc1)N1C(=O)C(=Cc2ccc(-c3ccccc3Cl)o2)SC1=S` (stereo not shown) [Compound B51] and `O=C(O)C(Cc1ccc(O)cc1)N1C(=O)C(=Cc2ccc(-c3cc(Cl)ccc3Cl)o2)SC1=S` (stereo not shown) [Compound B62] cannot be ordered by IC50: < 10 µM for the first, < 10 µM for the second.

`O=C(O)C(Cc1ccc(O)cc1)N1C(=O)C(=Cc2ccc(-c3cccc(C(F)(F)F)c3)o2)SC1=S` (stereo not shown) [Compound B52] and `O=C(O)C(Cc1ccc(O)c(O)c1)N1C(=O)C(=Cc2ccc(-c3cccc(C(F)(F)F)c3)o2)SC1=S` (stereo not shown) [Compound B55] cannot be ordered by IC50: < 10 µM for the first, < 10 µM for the second.

First: O=C(O)C(Cc1ccc(O)cc1)N1C(=O)C(=Cc2ccc(-c3ccc(Cl)cc3)o2)SC1=S (stereo not shown) [Compound B53]
Second: O=C(O)C(Cc1ccc(O)c(O)c1)N1C(=O)C(=Cc2ccc(-c3ccc(Cl)cc3)o2)SC1=S (stereo not shown) [Compound B56]
The IC50 of the first is lower: < 10 µM for the first, 11 to 40 µM for the second.

First: O=C(O)C(Cc1ccc(O)c(O)c1)N1C(=O)C(=Cc2ccc(-c3ccccc3Cl)o2)SC1=S (stereo not shown) [Compound B54]
Second: O=C(O)C(Cc1ccc(O)c(O)c1)N1C(=O)C(=Cc2ccc(-c3cc(Cl)ccc3Cl)o2)SC1=S (stereo not shown) [Compound B64]
The IC50 of the first is higher: 11 to 40 µM for the first, < 10 µM for the second.

`O=C(O)C(Cc1ccccc1)N1C(=O)C(=Cc2ccc(-c3ccc(Cc4ccccc4)cc3)o2)SC1=S` (stereo not shown) [Compound B57] and `O=C(O)C(Cc1ccccc1)N1C(=O)C(=Cc2ccc(-c3ccc(CSc4ccccc4)cc3)o2)SC1=S` (stereo not shown) [Compound B76] cannot be ordered by IC50: < 10 µM for the first, < 10 µM for the second.

`O=C(O)C(Cc1ccc(O)cc1)N1C(=O)C(=Cc2ccc(-c3ccc(Cc4ccccc4)cc3)o2)SC1=S` (stereo not shown) [Compound B58] and `O=C(O)C(Cc1ccc(O)c(O)c1)N1C(=O)C(=Cc2ccc(-c3ccc(Cc4ccccc4)cc3)o2)SC1=S` (stereo not shown) [Compound B59] cannot be ordered by IC50: < 10 µM for the first, < 10 µM for the second.

`O=C(O)CN1C(=O)C(=Cc2ccc(-c3ccc(Cl)cc3)o2)SC1=S` [Compound B60] and `CC(C)c1ccc(-c2ccc(C=C3SC(=S)N(CC(=O)O)C3=O)o2)cc1` [Compound B70] fall in the same range of IC50: 11 to 40 µM for the first, 11 to 40 µM for the second.

`O=C(O)CN1C(=O)C(=Cc2ccc(-c3cc(C(F)(F)F)ccc3Cl)o2)SC1=S` [Compound B61] and `O=C(O)CN1C(=O)C(=Cc2ccc(-c3cccc(Cl)c3Cl)o2)SC1=S` [Compound B85] cannot be ordered by IC50: < 10 µM for the first, < 10 µM for the second.

`O=C(O)C(Cc1ccc(O)cc1)N1C(=O)C(=Cc2ccc(-c3cc(C(F)(F)F)ccc3Cl)o2)SC1=S` (stereo not shown) [Compound B63] and `O=C(O)C(Cc1ccc(O)c(O)c1)N1C(=O)C(=Cc2ccc(-c3cc(C(F)(F)F)ccc3Cl)o2)SC1=S` (stereo not shown) [Compound B65] cannot be ordered by IC50: < 10 µM for the first, < 10 µM for the second.

`CC(C)c1ccc(-c2ccc(C=C3SC(=S)N(C(C(=O)O)c4ccccc4)C3=O)o2)cc1` (stereo not shown) [Compound B66] and `CC(C)Cc1ccc(-c2ccc(C=C3SC(=S)N(C(C(=O)O)c4ccccc4)C3=O)o2)cc1` (stereo not shown) [Compound B78] cannot be ordered by IC50: < 10 µM for the first, < 10 µM for the second.

`CC(C)c1ccc(-c2ccc(C=C3SC(=S)N(C(Cc4ccccc4)C(=O)O)C3=O)o2)cc1` (stereo not shown) [Compound B67] and `CC(C)c1cccc(-c2ccc(C=C3SC(=S)N(C(Cc4ccccc4)C(=O)O)C3=O)o2)c1` (stereo not shown) [Compound B75] cannot be ordered by IC50: < 10 µM for the first, < 10 µM for the second.

`CC(C)c1ccc(-c2ccc(C=C3SC(=S)N(C(Cc4ccc(O)c(O)c4)C(=O)O)C3=O)o2)cc1` (stereo not shown) [Compound B68] and `CC(C)C(C(=O)O)N1C(=O)C(=Cc2ccc(-c3ccc(Cl)cc3)o2)SC1=S` (stereo not shown) [Compound B103] cannot be ordered by IC50: < 10 µM for the first, < 10 µM for the second.

First: O=C(O)CN1C(=O)C(=Cc2ccc(-c3ccc(C(=O)c4ccccc4)cc3)o2)SC1=S [Compound B69]
Second: C=C(c1ccccc1)c1ccc(-c2ccc(C=C3SC(=S)N(CC(=O)O)C3=O)o2)cc1 [Compound B82]
The IC50 of the first is higher: 11 to 40 µM for the first, < 10 µM for the second.

First: O=C(O)CN1C(=O)C(=Cc2ccc(-c3ccc(CSc4ccccc4)cc3)o2)SC1=S [Compound B71]
Second: O=C(O)CN1C(=O)C(=Cc2ccc(-c3ccc(Cc4ccc(Cl)cc4)cc3)o2)SC1=S [Compound B79]
The IC50 of the first is higher: 11 to 40 µM for the first, < 10 µM for the second.

`CC(C)c1cccc(-c2ccc(C=C3SC(=S)N(CC(=O)O)C3=O)o2)c1` [Compound B72] and `CC(C)Cc1ccc(-c2ccc(C=C3SC(=S)N(CC(=O)O)C3=O)o2)cc1` [Compound B77] cannot be ordered by IC50: < 10 µM for the first, < 10 µM for the second.

`O=C(O)CN1C(=O)C(=Cc2ccc(-c3ccc(C4CCCCC4)cc3)o2)SC1=S` [Compound B73] and `O=C(O)CN1C(=O)C(=Cc2ccc(-c3ccc(C4CCCC4)cc3)o2)SC1=S` [Compound B81] cannot be ordered by IC50: < 10 µM for the first, < 10 µM for the second.

First: CC(C)(C)c1ccc(-c2ccc(C=C3SC(=S)N(CC(=O)O)C3=O)o2)cc1 [Compound B74]
Second: CN(C)c1ccc(-c2ccc(C=C3SC(=S)N(CC(=O)O)C3=O)o2)cc1 [Compound B84]
The IC50 of the first is lower: < 10 µM for the first, 11 to 40 µM for the second. The first is the more potent here.

`CN(C)c1ccc(-c2ccc(C=C3SC(=S)N(CC(=O)O)C3=O)o2)cc1` [Compound B86] and `Cc1ccccc1-c1ccc(C=C2SC(=S)N(CC(=O)O)C2=O)o1` [Compound B87] fall in the same range of IC50: 41 to 80 µM for the first, 41 to 80 µM for the second.

Compared with `COc1ccccc1-c1ccc(C=C2SC(=S)N(CC(=O)O)C2=O)o1` [Compound B88], `O=C(O)CCCN1C(=O)C(=Cc2ccc(-c3ccccc3Cl)o2)SC1=S` [Compound B90] is lower in IC50: 11 to 40 µM for the first, < 10 µM for the second.

`N#Cc1c(F)cccc1-c1ccc(C=C2SC(=S)N(C(C(=O)O)c3ccccc3)C2=O)o1` (stereo not shown) [Compound B89] and `CC(C(=O)O)N1C(=O)C(=Cc2ccc(-c3ccccc3Cl)o2)SC1=S` (stereo not shown) [Compound B94] fall in the same range of IC50: 11 to 40 µM for the first, 11 to 40 µM for the second.

Compared with `O=C(O)CCCN1C(=O)C(=Cc2ccc(-c3cccc(C(F)(F)F)c3)o2)SC1=S` [Compound B91], `CC(C)C(C(=O)O)N1C(=O)C(=Cc2ccc(-c3cccc(C(F)(F)F)c3)o2)SC1=S` (stereo not shown) [Compound B105] is higher in IC50: < 10 µM for the first, 11 to 40 µM for the second. The first is the more potent here.

`Cc1cc(N(C)C)ccc1-c1ccc(C=C2SC(=S)N(CCCC(=O)O)C2=O)o1` [Compound B92] and `CS(=O)(=O)c1ccc(-c2ccc(C=C3SC(=S)N(CCCC(=O)O)C3=O)o2)cc1` [Compound B93] fall in the same range of IC50: 11 to 40 µM for the first, 11 to 40 µM for the second.

`CC(C(=O)O)N1C(=O)C(=Cc2ccc(-c3cccc(Cl)c3)o2)SC1=S` (stereo not shown) [Compound B95] and `CC(C)C(C(=O)O)N1C(=O)C(=Cc2ccc(-c3cccc(Cl)c3)o2)SC1=S` (stereo not shown) [Compound B102] fall in the same range of IC50: 11 to 40 µM for the first, 11 to 40 µM for the second.

First: CC(C(=O)O)N1C(=O)C(=Cc2ccc(-c3ccc(Cl)cc3)o2)SC1=S (stereo not shown) [Compound B96]
Second: CC(C(=O)O)N1C(=O)C(=Cc2ccc(-c3ccc(F)cc3)o2)SC1=S (stereo not shown) [Compound B98]
The IC50 of the first is lower: < 10 µM for the first, 41 to 80 µM for the second.

`Cc1ccccc1-c1ccc(C=C2SC(=S)N(C(C)C(=O)O)C2=O)o1` (stereo not shown) [Compound B97] and `Cc1ccccc1-c1ccc(C=C2SC(=S)N(C(C(=O)O)C(C)C)C2=O)o1` (stereo not shown) [Compound B106] fall in the same range of IC50: 11 to 40 µM for the first, 11 to 40 µM for the second.

First: CC(C(=O)O)N1C(=O)C(=Cc2ccc(-c3ccccc3C(F)(F)F)o2)SC1=S (stereo not shown) [Compound B99]
Second: CC(C)C(C(=O)O)N1C(=O)C(=Cc2ccc(-c3ccccc3C(F)(F)F)o2)SC1=S (stereo not shown) [Compound B104]
The IC50 of the first is higher: 11 to 40 µM for the first, < 10 µM for the second.

`CC(C)C(C(=O)O)N1C(=O)C(=Cc2ccc(-c3ccccc3Cl)o2)SC1=S` (stereo not shown) [Compound B101] and `CC(C)C(C(=O)O)N1C(=O)C(=Cc2ccc(-c3ccc(Cl)cc3Cl)o2)SC1=S` (stereo not shown) [Compound B108] cannot be ordered by IC50: < 10 µM for the first, < 10 µM for the second.

First: CC(C)C(C(=O)O)N1C(=O)C(=Cc2ccc(-c3ccc(F)cc3)o2)SC1=S (stereo not shown) [Compound B107]
Second: CC(C)C(C(=O)O)N1C(=O)C(=Cc2ccc(-c3ccc(Cl)c(Cl)c3)o2)SC1=S (stereo not shown) [Compound B111]
The IC50 of the first is higher: 11 to 40 µM for the first, < 10 µM for the second.

`COc1ccc(-c2ccc(C=C3SC(=S)N(C(C(=O)O)C(C)C)C3=O)o2)cc1Cl` (stereo not shown) [Compound B109] and `COc1ccc(-c2ccc(C=C3SC(=S)N(C(C)C(=O)O)C3=O)o2)cc1Cl` (stereo not shown) [Compound B113] cannot be ordered by IC50: < 10 µM for the first, < 10 µM for the second.

`CC(C)C(C(=O)O)N1C(=O)C(=Cc2ccc(-c3ccc(Cl)cc3[N+](=O)[O-])o2)SC1=S` (stereo not shown) [Compound B110] and `CC(C(=O)O)N1C(=O)C(=Cc2ccc(-c3ccc(Cl)cc3[N+](=O)[O-])o2)SC1=S` (stereo not shown) [Compound B114] fall in the same range of IC50: 11 to 40 µM for the first, 11 to 40 µM for the second.

Compared with `CNS(=O)(=O)c1ccc(-c2ccc(C=C3SC(=S)N(CCCC(=O)O)C3=O)o2)cc1` [Compound B115], `O=C(O)C1CCCC(N2C(=O)C(=Cc3ccc(-c4ccccc4Cl)o3)SC2=S)C1` (stereo not shown) [Compound C1, 3-{5-[1-[5-(2-chloro-phenyl)-furan-2-yl]-methylidene]-4-oxo-2-thioxo-thiazolidin-3-yl}-cyclohexanecarboxylic acid] is lower in IC50: 41 to 80 µM for the first, 11 to 40 µM for the second. The second is the more potent here.
